Data as given in patent publication US12365665B2, “Solid form of diaminopyrimidine compound or hydrate thereof, preparation method therefor, and application thereof” (BEIJING TIDE PHARMACEUTICAL CO., LTD., priority 2020, dated 2025).

Key:
Type in all cases: physicochemical
[1] = High humidity stability test (XRPD); conditions: 92.5% RH/25° C., after 5, 10 and 30 days
Description: (§1) The detection instruments and conditions used in the following examples are as follows: • (1) X-Ray Powder Diffraction (XRPD) • Instrument Model: Bruker D8 advance, equipped with a LynxEye detector • Test conditions: the anode target material was copper, the light pipe was set to (40 KV 40 mA), the 2θ scan angle for the sample was from 3° to 40°, and scan step was 0.02°. • (2) Differential Scanning Calorimetry Analysis (DSC) • Instrument Model: TA Discovery DSC 250 (TA Instruments, US) • Test conditions: the heating rate was 10° C./min, and dry nitrogen was used as the purge gas. • (3) Thermogravimetric Analysis (TGA) • Instrument Model: Discovery TGA 55 (TA Instruments, US) • Test conditions: automatic weighing in the heating furnace, the heating rate was 10° C./min, and dry nitrogen was used as the purge gas. • (4) Polarizing Microscope Analysis (PLM) • Instrument Model: Polarizing Microscope ECLIPSE LV100POL (Nikon, JPN)
The stability of the crystalline form I prepared in Example 2 was investigated under a condition of 92.5% RH/25° C., and the XRPD pattern was measured with a Bruker D8 advance X-ray powder diffractometer (see FIG. 20).

[2] = Room temperature stability test (XRPD before and after storage); conditions: sealed in medicinal low-density polyethylene bag, 180 days
Description: as §1, with “JPN) […]” for “JPN)”

[3] = Physical grinding stability test (XRPD); conditions: physically ground for 2 minutes
Description: as §1
The crystalline form I prepared in Example 2 was physically ground for 2 minutes, and then the XRPD pattern was measured with a Bruker D8 advance X-ray powder diffractometer (see FIG. 21).

[4] = High temperature stability test (XRPD); conditions: 60° C.
Description: as §1
The stability of the crystalline form I prepared in Example 2 was investigated at 60° C., and the XRPD pattern was measured with a Bruker D8 advance X-ray powder diffractometer (see FIG. 19).

For `C#Cc1cc(Oc2cnc(N)nc2N)c(C(C)C)cn1` [crystalline form I, 5-((2-ethynyl-5-isopropylpyridin-4-yl)oxy)pyrimidine-2,4-diamine], the “change in the crystalline form (XRPD) at high humidity” value [1] was “no change in the crystalline form”, the “change in the crystalline form (XRPD) after storage at room temperature” value [2] was “no change in the crystalline form” and the “change in the crystalline form (XRPD) after physical grinding” value [3] was “no change in the crystalline form”. For the same compound, the “change in the crystalline form after storage under a high temperature condition (summary statement)” value ([4]; 30 days) was “its crystalline form did not change” and the “change in the crystalline form (XRPD) at high temperature” value ([4]; after 5, 10 and 30 days) was “no change in the crystalline form”.
